Measured values published in ChEMBL document CHEMBL1201862, “PubChem BioAssay data set” (2004).
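Cultured in 96-well plates, cells were exposed to test compound for 48 hours across five concentrations. GI50 = concentration required for 50% inhibition of growth.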 Active and inactive are the calls of the source. Rule as the data show it: active = GI50 up to about 1.1 µM and inactive = higher.

Assays:
Test in all cases: inhibition of tumour cell growth, NCI panel, 48 h
RPMI-8226 = system: RPMI-8226
MDA-MB-231 = system: MDA-MB-231
NCI-H23 = system: NCI-H23
HCT-15 = system: HCT-15
SNB-19 = system: SNB-19
A549 = system: A549
COLO 205 = system: COLO 205
SF-539 = system: SF-539
MOLT-4 = system: MOLT-4
HOP-92 = system: HOP-92
KM12 = system: KM12
OVCAR-4 = system: OVCAR-4
OVCAR-3 = system: OVCAR-3
ACHN = system: ACHN
A498 = system: A498
SK-OV-3 = system: SK-OV-3
HL-60 = system: HL-60
SR = system: SR
Malme-3M = system: Malme-3M
SN12C = system: SN12C

Measured: GI50

CN(C)C1(N(C)C)Oc2c(c(=O)n(C)c(=O)n2C)C(c2ccccc2Br)C1(F)F (stereo unspecified)
inactive: RPMI-8226 > 100 µM | MDA-MB-231 > 100 µM | NCI-H23 > 100 µM | SNB-19 > 100 µM | A549 > 100 µM | COLO 205 > 100 µM | SF-539 > 100 µM | MOLT-4 > 100 µM | HOP-92 > 100 µM | KM12 > 100 µM | OVCAR-4 > 100 µM | OVCAR-3 > 100 µM | ACHN > 100 µM | A498 > 100 µM | SK-OV-3 > 100 µM
> 100 µM: HCT-15

C=C1C2CC3CCC2C(OC(=O)c2ccccc2C(=O)O)C13 (stereo unspecified)
inactive: MDA-MB-231 > 100 µM | NCI-H23 > 100 µM | HL-60 > 100 µM | SNB-19 > 100 µM | SR > 100 µM | A549 > 100 µM | COLO 205 > 100 µM | SF-539 > 100 µM | MOLT-4 > 100 µM | Malme-3M > 100 µM | HOP-92 > 100 µM | KM12 > 100 µM | OVCAR-4 > 100 µM | OVCAR-3 95.9 µM | ACHN > 100 µM | A498 > 100 µM | SN12C > 100 µM | SK-OV-3 > 100 µM
> 100 µM: HCT-15

C[C@H]1[C@H](C)CC[C@]2(C)CC[C@]3(C)C(=C[C@@H](O)[C@@H]4[C@@]5(C)[C@H](O)[C@@H](O)[C@H](O)C(C)(C)[C@@H]5CC[C@]43C)[C@H]12
> 100 µM: HCT-15
inactive: RPMI-8226 55.6 µM | MDA-MB-231 > 100 µM | NCI-H23 > 100 µM | HL-60 > 100 µM | SNB-19 > 100 µM | SR > 100 µM | A549 > 100 µM | COLO 205 > 100 µM | SF-539 > 100 µM | MOLT-4 82.4 µM | KM12 96.2 µM | OVCAR-3 77.1 µM | ACHN > 100 µM | A498 > 100 µM | SN12C > 100 µM | SK-OV-3 > 100 µM

NC(Cc1c[nH]c2ccc([N+](=O)[O-])cc12)C(=O)O (stereo unspecified)
inactive: RPMI-8226 > 100 µM | MDA-MB-231 > 100 µM | NCI-H23 > 100 µM | HL-60 > 100 µM | SNB-19 > 100 µM | SR > 100 µM | A549 > 100 µM | COLO 205 > 100 µM | MOLT-4 > 100 µM | Malme-3M > 100 µM | KM12 > 100 µM | OVCAR-4 > 100 µM | OVCAR-3 > 100 µM | ACHN > 100 µM | A498 > 100 µM | SN12C > 100 µM | SK-OV-3 > 100 µM
> 100 µM: HCT-15

Nc1cc(F)ccc1CC(=O)O
inactive: RPMI-8226 > 100 µM | MDA-MB-231 > 100 µM | NCI-H23 > 100 µM | HL-60 > 100 µM | SNB-19 > 100 µM | SR > 100 µM | A549 > 100 µM | COLO 205 > 100 µM | SF-539 > 100 µM | MOLT-4 > 100 µM | Malme-3M > 100 µM | KM12 > 100 µM | ACHN > 100 µM | A498 > 100 µM | SN12C > 100 µM | SK-OV-3 > 100 µM
> 100 µM: HCT-15

CC(=O)N1N=C(c2ccc3ccccc3c2O)CC1c1ccc(N(C)C)cc1 (stereo unspecified)
> 100 µM: HCT-15
inactive: RPMI-8226 > 100 µM | MDA-MB-231 > 100 µM | NCI-H23 > 100 µM | SR 10.9 µM | A549 > 100 µM | COLO 205 > 100 µM | SF-539 > 100 µM | MOLT-4 > 100 µM | Malme-3M > 100 µM | HOP-92 > 100 µM | KM12 > 100 µM | OVCAR-4 > 100 µM | OVCAR-3 > 100 µM | ACHN > 100 µM | A498 > 100 µM | SN12C > 100 µM | SK-OV-3 > 100 µM

C=CC[C@H](C)CCC(=O)N1[C@H]2CC3CC[C@@]2(CS1(=O)=O)C3(C)C
inactive: RPMI-8226 39.9 µM | MDA-MB-231 > 100 µM | NCI-H23 22.7 µM | HL-60 25.1 µM | SNB-19 87.9 µM | SR 31.5 µM | A549 39.8 µM | COLO 205 34.3 µM | MOLT-4 17.3 µM | Malme-3M 46.8 µM | HOP-92 > 100 µM | KM12 39.3 µM | OVCAR-4 39.5 µM | ACHN 40.7 µM | A498 > 100 µM | SN12C 85.5 µM | SK-OV-3 > 100 µM
25.5 µM: HCT-15

CN(C)/C=N/NC(=O)/C(C#N)=C/N(C)C
inactive: RPMI-8226 > 100 µM | MDA-MB-231 > 100 µM | NCI-H23 > 100 µM | HL-60 > 100 µM | SNB-19 > 100 µM | SR > 100 µM | A549 > 100 µM | COLO 205 > 100 µM | SF-539 64.7 µM | MOLT-4 > 100 µM | Malme-3M 75.3 µM | KM12 > 100 µM | OVCAR-4 > 100 µM | OVCAR-3 > 100 µM | ACHN > 100 µM | A498 > 100 µM | SN12C > 100 µM | SK-OV-3 > 100 µM
> 100 µM: HCT-15

CC(=O)O[C@H]1C(=O)[C@@]2(C)[C@H]([C@H](OC(=O)c3ccccc3)[C@]3(O)C[C@H](OC(=O)[C@H](O)[C@@H](NC(=O)c4ccccc4)c4cccc(N(C)C)c4)C(C)=C1C3(C)C)[C@]1(OC(C)=O)CO[C@@H]1C[C@@H]2O
1.79 µM: HCT-15
active: RPMI-8226 0.00968 µM | MDA-MB-231 0.542 µM | NCI-H23 0.0755 µM | HL-60 0.0122 µM | SNB-19 0.148 µM | SR 0.0322 µM | A549 0.314 µM | COLO 205 0.0432 µM | SF-539 0.0668 µM | MOLT-4 0.013 µM | HOP-92 0.555 µM | KM12 0.0198 µM | OVCAR-3 0.0308 µM | ACHN 0.7 µM | A498 0.579 µM | SN12C 0.041 µM | SK-OV-3 0.105 µM

O=CN1CCN(C(=O)c2cc(Cl)cc(Cl)c2)C1=S
17 µM: HCT-15
inactive: RPMI-8226 2.44 µM | MDA-MB-231 15.6 µM | NCI-H23 17.2 µM | HL-60 10.3 µM | SNB-19 20.5 µM | A549 20.8 µM | COLO 205 17.1 µM | SF-539 20.2 µM | MOLT-4 15 µM | Malme-3M 3.12 µM | HOP-92 17.9 µM | KM12 14.4 µM | OVCAR-4 17.1 µM | OVCAR-3 14.8 µM | ACHN 16.9 µM | A498 15.3 µM | SN12C 15.6 µM | SK-OV-3 17.5 µM

CC#CC#C/C=C1/C=CC2(CCCCO2)O1 (stereo unspecified)
inactive: MDA-MB-231 > 100 µM | NCI-H23 > 100 µM | HL-60 19.5 µM | SNB-19 40.6 µM | SR 35.6 µM | A549 > 100 µM | COLO 205 71.1 µM | SF-539 > 100 µM | MOLT-4 33.5 µM | Malme-3M > 100 µM | HOP-92 > 100 µM | KM12 > 100 µM | OVCAR-4 > 100 µM | A498 > 100 µM | SN12C > 100 µM | SK-OV-3 > 100 µM
56.8 µM: HCT-15
